In BigSolDB 2.1:

NC(=O)c1cccnc1
solubility (mole fraction)
Conditions	in acetone	in ethanol	in ethyl acetate	in isobutanol	in isopropanol	in methanol	in methyl acetate	in n-butanol	in n-butyl acetate	in n-propanol
283.15 K	0.0116	0.0263	0.00797	0.0222	0.0187	0.0541	0.00929	0.0235	0.00936	0.0219
288.15 K	0.0134	0.032	0.00871	0.0248	0.023	0.0643	0.0101	0.0274	0.00955	0.0266
293.15 K	0.0164	0.0374	0.01	0.0292	0.0281	0.0748	0.0117	0.0315	0.01	0.0321
298.15 K	0.0191	0.0444	0.0112	0.0345	0.0328	0.0876	0.0135	0.0362	0.0107	0.0378
303.15 K	0.0234	0.0537	0.0129	0.0392	0.0396	0.102	0.0156	0.0416	0.0114	0.045
308.15 K	0.0286	0.0638	0.0145	0.0456	0.048	0.121	0.0179	0.0482	0.0124	0.0542
313.15 K	0.0342	0.0766	0.0163	0.0544	0.0573	0.141	0.0209	0.0566	0.0135	0.0647
318.15 K	0.0392	0.0912	0.0182	0.0637	0.0673	0.166	0.0235	0.0664	0.0153	0.0766
323.15 K	0.0472	0.11	0.0213	0.0754	0.0801	0.192	0.0272	0.0774	0.0181	0.0924
